In patent US12491190B2, “Bile acid derivative, composition and application thereof” (SHENZHEN YUNHE PHARMACEUTICAL TECHNOLOGY PARTNERSHIP …, priority 2019, dated 2025):

Key:
NCI-H716 and STC-1 cells = assay: GLP-1 expression in enteroendocrine cell lines after 48 h bile acid treatment; assay type: cell-based; details: 50 μM, through the action of TGR5 and FXR, FIG. 6
Method: NCI-H716 and STC-1 cells were treated with 50 μM hyocholic acid, hyodeoxycholic acid, taurohyodeoxycholic acid, glycohyodeoxycholic acid, taurohyocholic acid, glycohyocholic acid and 19 kinds of other bile acids for 48 hours. […] (a) GLP-1 transcription was measured using real-time PCR, see FIG. 6A. (b) GLP-1 secretion was measured using ELISA, see FIG. 6B. (c) NCI-H716 and STC-1 and TGR5 knockdown cells thereof were treated with 6 kinds of hyocholic acids for 24 h and intracellular GLP-1, p-CREB and total CREB were measured using western blotting. (d) FXR protein concentration in nuclear and cytoplasmic fractions ofNCI-H716 cells after 24 h treatment with 50 μM chenodeoxycholic acid or 5-cholic acid in the presence and absence of hyocholic acid. See FIG. 6E. * P<0.05, compared with the control.

NCI-H716 cells = assay: GLP-1 release into culture medium of NCI-H716 cells; assay type: cell-based; details: 50 μM, FIG. 5
Method: NCI-H716 cells were cultured and treated with 50 μM hyocholic acid and hyocholic acid derivatives, and a reported TGR5 agonist INT-777, and the levels of GLP-1 in the cell culture medium were measured.

[1] = system: fat-induced obesity mouse model; assay: High-fat diet induced obesity mouse model, triglyceride after 8 weeks of gavage; assay type: in vivo, mice; details: for triglyceride levels versus simple high-fat diet group: 50 mg/kg/day by gavage with high-fat diet for 8 weeks; for liver triglyceride / serum triglyceride: after 8 weeks of intervention; for liver triglyceride: FIG. 2; for serum triglyceride: FIG. 3
Method: In the fat-induced obesity mouse model, hyocholic acid and hyodeoxycholic acid were administered by gavage at a dose of 50 mg/kg/day while feeding high-fat diet (HFD) for 8 weeks. […] The increase of hyocholic acid and hyodeoxycholic acid in mice can effectively improve the dyslipidemia in mice caused by high fat.

Structure (SMILES) | upregulating GLP-1 protein expression in enteroendocrine cell lines (NCI-H716 and STC-1 cells) | release of GLP-1 (level in cell culture medium) (NCI-H716 cells) | triglyceride levels versus simple high-fat diet group [1] | liver triglyceride [1] | serum triglyceride [1]
C[C@H](CCC(=O)NCCS(=O)(=O)O)[C@H]1CC[C@H]2[C@@H]3[C@H](O)[C@H](O)[C@@H]4C[C@H](O)CC[C@]4(C)[C@H]3CC[C@]12C.[Na] [taurohyocholic acid] | more effective than other bile acids |  |  |  | 
C[C@H](C[C@H](C)C(=O)O)[C@H]1CCC2C3C(CC[C@@]21C)[C@@]1(C)CC[C@@H](O)CC1[C@@H](O)[C@H]3O (stereo partly drawn) [ZN-1-102-1, (S)-23-methyl hyocholic acid] |  | superior to hyocholic acid and the existing TGR5 agonist INT-777 |  |  | 
CC[C@H]1[C@@H](O)[C@@H]2[C@H](C[C@H](O)[C@]3(C)[C@@H]([C@H](C)C[C@H](C)C(=O)O)CC[C@@H]23)[C@@]2(C)CC[C@@H](O)C[C@@H]12 [INT-777] |  | effectively promote the release of GLP-1 |  |  | 
C[C@H](CCC(=O)NCC(=O)O)[C@H]1CC[C@H]2[C@@H]3[C@H](O)[C@H](O)[C@@H]4C[C@H](O)CC[C@]4(C)[C@H]3CC[C@]12C [glycohyocholic acid] | more effective than other bile acids |  |  |  | 
C[C@H](CCC(=O)O)[C@H]1CC[C@H]2[C@@H]3[C@H](O)[C@H](O)[C@@H]4C[C@H](O)CC[C@]4(C)[C@H]3CC[C@]12C [hyocholic acid] | more effective than other bile acids | effectively promote the release of GLP-1 | significantly lower | significant decrease | significant decrease
C[C@H](CCC(=O)NCCS(=O)(=O)[O-])[C@H]1CC[C@H]2[C@@H]3C[C@H](O)[C@@H]4C[C@H](O)CC[C@]4(C)[C@H]3CC[C@]12C.[Na+] [taurohyodeoxycholic acid] | more effective than other bile acids |  |  |  | 
C[C@H](CCC(=O)O)[C@H]1CC[C@H]2[C@@H]3C[C@H](O)[C@@H]4C[C@H](O)CC[C@]4(C)[C@H]3CC[C@]12C [hyodeoxycholic acid] | more effective than other bile acids |  | significantly lower | significant decrease | significant decrease
CC(CCC(=O)NCC(=O)O)C1CCC2C3CC(O)C4CC(O)CCC4(C)C3CCC12C (stereo not drawn) [glycohyodeoxycholic acid] | more effective than other bile acids |  |  |  | 
